Reference: US20240156874A1, “METHODS FOR GENERATING STEM CELL-DERIVED BETA CELLS AND USES THEREOF” (President and Fellows of Harvard College, priority 2014, published 2024)

Key:
SC-β cells [1] = assay: In vitro SC-β cell function screen: stimulation index of SC-β cells generated with the agent; type: cell-based, human; details: FIG. 1A
Experimental: Stimulation index=[insulin@20 mM glucose]/[insulin@2 mM glucose]. Relative Stim Index=Stim Index/Stim Index of Control.
FIG. 3 is a schematic illustration depicting an overview of the chemicals used and approach for the initial screen.

beta cells = details: Table 1, background knowledge on the screened compounds; cited from earlier work
SC-β cells [2] = assay: In vivo function of SC-β cells generated with the agents, after transplantation into mice
Excerpt: FIG. 4B is a Table quantifying the improvement in stimulation index and mean 30′ insulin post injection illustrated in FIG. 4A.
FIG. 5B is a Table quantifying the improvement in stimulation index and mean 30′ insulin post injection illustrated in FIG. 5A.

PDGFRβ = PDGFRβ (Homo sapiens, UniProt P09619); details: cited from earlier work
PDGFRβ, sequence (P09619 33-1106, species assumed): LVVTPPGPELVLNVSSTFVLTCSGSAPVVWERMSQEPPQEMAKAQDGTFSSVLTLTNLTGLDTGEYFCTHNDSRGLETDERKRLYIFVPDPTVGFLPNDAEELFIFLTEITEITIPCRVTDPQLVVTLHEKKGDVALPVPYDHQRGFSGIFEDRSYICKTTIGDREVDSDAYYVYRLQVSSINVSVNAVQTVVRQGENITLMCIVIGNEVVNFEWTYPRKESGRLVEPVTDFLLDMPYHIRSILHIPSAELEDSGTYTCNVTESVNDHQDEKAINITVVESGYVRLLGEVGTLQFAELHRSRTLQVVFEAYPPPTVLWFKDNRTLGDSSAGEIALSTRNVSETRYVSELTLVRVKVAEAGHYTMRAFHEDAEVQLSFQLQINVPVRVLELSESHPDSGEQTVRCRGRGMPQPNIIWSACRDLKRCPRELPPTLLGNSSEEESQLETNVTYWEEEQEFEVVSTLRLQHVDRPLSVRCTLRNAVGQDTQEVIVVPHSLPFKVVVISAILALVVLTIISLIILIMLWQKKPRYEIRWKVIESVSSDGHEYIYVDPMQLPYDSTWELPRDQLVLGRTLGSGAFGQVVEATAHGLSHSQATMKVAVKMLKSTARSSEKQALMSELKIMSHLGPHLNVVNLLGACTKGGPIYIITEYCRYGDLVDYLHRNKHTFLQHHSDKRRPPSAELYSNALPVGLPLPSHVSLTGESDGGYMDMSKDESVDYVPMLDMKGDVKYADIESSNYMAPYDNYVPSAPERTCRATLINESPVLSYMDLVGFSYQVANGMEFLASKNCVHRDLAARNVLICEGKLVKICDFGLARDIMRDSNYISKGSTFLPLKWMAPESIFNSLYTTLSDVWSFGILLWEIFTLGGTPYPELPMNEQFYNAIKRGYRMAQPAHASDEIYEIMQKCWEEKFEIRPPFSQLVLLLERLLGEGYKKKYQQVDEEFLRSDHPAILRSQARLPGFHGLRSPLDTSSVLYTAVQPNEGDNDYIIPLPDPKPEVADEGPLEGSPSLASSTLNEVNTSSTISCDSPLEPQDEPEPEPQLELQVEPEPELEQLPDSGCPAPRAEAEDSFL

ALK5 = target: T1, ALK5 (Homo sapiens, UniProt P36897); details: cited from earlier work
T1 sequence (P36897 34-503): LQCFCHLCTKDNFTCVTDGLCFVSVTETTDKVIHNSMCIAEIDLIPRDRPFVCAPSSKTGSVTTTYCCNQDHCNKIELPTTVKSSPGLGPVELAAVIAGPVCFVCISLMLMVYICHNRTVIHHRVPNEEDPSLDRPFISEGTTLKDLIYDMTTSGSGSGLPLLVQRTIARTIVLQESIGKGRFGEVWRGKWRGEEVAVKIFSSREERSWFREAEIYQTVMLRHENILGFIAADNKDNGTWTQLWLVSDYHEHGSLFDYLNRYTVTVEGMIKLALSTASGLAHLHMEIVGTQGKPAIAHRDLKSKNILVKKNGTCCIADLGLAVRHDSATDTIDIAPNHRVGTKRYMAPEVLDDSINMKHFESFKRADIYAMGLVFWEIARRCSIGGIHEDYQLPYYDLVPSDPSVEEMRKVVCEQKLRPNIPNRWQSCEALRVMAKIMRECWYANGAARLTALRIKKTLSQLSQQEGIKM

KDR (VEGFR-2) = KDR (VEGFR-2) (Homo sapiens, UniProt P35968); details: cited from earlier work
KDR (VEGFR-2), sequence (P35968 20-1356, species assumed): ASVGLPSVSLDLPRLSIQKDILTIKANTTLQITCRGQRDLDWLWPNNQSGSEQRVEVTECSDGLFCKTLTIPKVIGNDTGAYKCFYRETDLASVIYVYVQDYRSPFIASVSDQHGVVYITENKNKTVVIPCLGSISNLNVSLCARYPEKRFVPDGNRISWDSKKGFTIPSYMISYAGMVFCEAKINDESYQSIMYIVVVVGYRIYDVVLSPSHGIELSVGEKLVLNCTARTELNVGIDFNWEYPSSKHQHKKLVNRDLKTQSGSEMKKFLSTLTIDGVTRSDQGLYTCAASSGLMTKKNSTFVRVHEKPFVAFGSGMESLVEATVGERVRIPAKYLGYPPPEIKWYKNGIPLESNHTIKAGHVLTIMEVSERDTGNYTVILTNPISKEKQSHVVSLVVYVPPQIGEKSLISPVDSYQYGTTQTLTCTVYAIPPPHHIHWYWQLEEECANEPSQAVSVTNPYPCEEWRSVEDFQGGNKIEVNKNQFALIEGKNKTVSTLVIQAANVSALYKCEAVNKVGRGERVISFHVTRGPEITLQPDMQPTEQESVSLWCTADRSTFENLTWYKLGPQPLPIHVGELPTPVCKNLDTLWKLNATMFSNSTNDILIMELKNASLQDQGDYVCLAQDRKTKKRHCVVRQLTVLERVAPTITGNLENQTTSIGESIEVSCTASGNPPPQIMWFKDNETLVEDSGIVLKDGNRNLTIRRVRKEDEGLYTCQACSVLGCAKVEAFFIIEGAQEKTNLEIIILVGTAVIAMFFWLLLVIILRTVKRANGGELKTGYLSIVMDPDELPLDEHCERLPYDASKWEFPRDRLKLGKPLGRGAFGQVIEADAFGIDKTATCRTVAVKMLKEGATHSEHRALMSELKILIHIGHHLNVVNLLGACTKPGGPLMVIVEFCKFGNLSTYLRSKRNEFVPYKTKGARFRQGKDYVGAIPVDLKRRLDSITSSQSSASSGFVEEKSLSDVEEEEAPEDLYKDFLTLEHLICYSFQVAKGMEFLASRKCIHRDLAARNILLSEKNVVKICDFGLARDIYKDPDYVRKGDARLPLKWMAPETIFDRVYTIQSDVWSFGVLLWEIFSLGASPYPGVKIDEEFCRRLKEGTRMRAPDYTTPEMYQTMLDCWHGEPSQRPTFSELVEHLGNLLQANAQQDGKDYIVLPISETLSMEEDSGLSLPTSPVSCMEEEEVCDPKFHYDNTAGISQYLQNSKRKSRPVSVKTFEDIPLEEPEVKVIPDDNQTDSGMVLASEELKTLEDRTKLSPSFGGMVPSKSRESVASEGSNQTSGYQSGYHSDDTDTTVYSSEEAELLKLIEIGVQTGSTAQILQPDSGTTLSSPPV

[3] = test system: BMP4-induced phosphorylation of Smads 1, 5 and 8; details: HEK293 cells; cited from earlier work
AMPK = details: cited from earlier work
[4] = test system: p38a, p38b, p38d, JNK1, EGFR, MAPKAPK2, MKK6, ERK2, PKC, PKA, PKD, CDC2, and CaMKII; details: relative to TGFRI kinase (ALK5); cited from earlier work
TGFRII = TGFRII (Homo sapiens, UniProt P37173); details: relative to TGFRI kinase (ALK5); cited from earlier work
TGFRII, sequence (P37173 23-567): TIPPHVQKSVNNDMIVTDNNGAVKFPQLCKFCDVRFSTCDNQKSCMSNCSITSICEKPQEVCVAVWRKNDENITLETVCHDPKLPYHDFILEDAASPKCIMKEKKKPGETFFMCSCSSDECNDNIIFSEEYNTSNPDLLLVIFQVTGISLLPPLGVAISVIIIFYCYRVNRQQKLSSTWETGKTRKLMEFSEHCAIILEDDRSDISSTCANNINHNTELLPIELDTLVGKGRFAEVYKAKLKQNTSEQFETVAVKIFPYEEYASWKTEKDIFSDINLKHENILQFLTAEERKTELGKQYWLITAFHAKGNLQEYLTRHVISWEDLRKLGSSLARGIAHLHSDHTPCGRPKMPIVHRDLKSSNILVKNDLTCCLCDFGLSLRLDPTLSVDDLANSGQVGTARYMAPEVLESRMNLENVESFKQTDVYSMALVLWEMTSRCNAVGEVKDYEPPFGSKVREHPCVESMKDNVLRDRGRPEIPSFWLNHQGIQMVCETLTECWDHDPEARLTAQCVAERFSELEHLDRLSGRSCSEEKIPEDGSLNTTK

Cc1cccc(-c2nn(C(=S)Nc3ccccc3)cc2-c2ccnc3ccccc23)n1 [A83-01]
Stimulation index of resulting SC-β cells relative to control SC-β cells (SC-β cells [1]; concentration not given): worse stimulation indices
Effect on Beta Cells (beta cells): Reduces apoptosis of pancreatic beta cells, increases insulin

CC(C)Oc1ccc(-c2cnc3c(-c4ccnc5ccccc45)cnn3c2)cc1 [DMH-1, 4-[6-[4-(1-Methylethoxy)phenyl]pyrazolo[1,5-a]pyrimidin-3-yl]-quinoline]
Stimulation index of resulting SC-β cells relative to control SC-β cells (SC-β cells [1]; agent 1 μM, Stimulation index=[insulin@20 mM glucose]/[insulin@2 mM glucose]): greater stimulation index
In vivo function of SC-β cells generated using the agent(s) (SC-β cells [2]; 2 weeks post-transplantation into mice, FIG. 4A): improved in vivo function
In vivo function of SC-β cells generated using the agent(s) (SC-β cells [2]; 4 weeks post-transplantation into mice, FIG. 5A): improved in vivo function
Inhibition of PDGFRβ receptors (PDGFRβ): no detectable inhibition
Inhibition of ALK5 (ALK5): no detectable inhibition
Inhibition of KDR (VEGFR-2) (KDR (VEGFR-2)): no detectable inhibition
Effect on BMP4-induced phosphorylation of Smads 1, 5 and 8 [3]: block BMP4-induced phosphorylation of Smads 1, 5 and 8
Inhibition of AMPK (AMPK): no detectable inhibition
Effect on Beta Cells (beta cells): Aids differentiation of zebrafish beta cells

Oc1ccc(-c2nc(-c3ccc(F)cc3)c(-c3ccncc3)[nH]2)cc1 [SB202190]
Stimulation index of resulting SC-β cells relative to control SC-β cells (SC-β cells [1]; concentration not given): worse stimulation indices
Effect on Beta Cells (beta cells): Reduced apoptosis in beta cells

C[S+]([O-])c1ccc(-c2nc(-c3ccc(F)cc3)c(-c3ccncc3)[nH]2)cc1 (stereo not drawn) [SB203580]
Stimulation index of resulting SC-β cells relative to control SC-β cells (SC-β cells [1]; concentration not given): worse stimulation indices
Effect on Beta Cells (beta cells): Reduced apoptosis in beta cells

NC(=O)c1ccc(-c2nc(-c3ccc4c(c3)OCO4)c(-c3ccccn3)[nH]2)cc1 [SB431542, 4-[4-(1,3-benzodioxol-5-yl)-5-(2-pyridinyl)-111-imidazol-2-yl]benzamide]
Effect on Beta Cells (beta cells): Reduces apoptosis of pancreatic beta cells, increases insulin

Fc1ccc(Cl)cc1-c1nc(Nc2ccncc2)c2nccnc2n1 [SD208]
Specificity over members of a panel of related protein kinases [4]: at least 17 fold
Specificity against TGFRII (TGFRII): > 100 fold
Effect on Beta Cells (beta cells): Helps maintain growth of human pancreatic cancer cells

N#CC(=C(/N)Sc1ccccc1N)/C(C#N)=C(\N)Sc1ccccc1N [U0126]
Stimulation index of resulting SC-β cells relative to control SC-β cells (SC-β cells [1]; concentration not given): worse stimulation indices
Effect on Beta Cells (beta cells): Reduced apoptosis in beta cells
